From patent publication US11865103B2, “Methods of treating disorders associated with glycosylation defective proteins” (CASE WESTERN RESERVE UNIVERSITY, priority 2016, dated 2024)

Key:
[1] = system: hCLRN1^N48K-YFP; clrn1^KO/KO larvae; experiment: Survival rate of hCLRN1^N48K-YFP; clrn1^KO/KO zebrafish larvae under ART treatment, 6.5 to 27 dpf; type: in vivo; conditions: for Survival rate and swimming behavior beyond 25 dpf: untreated 5%
Method: (§1) The startle response and swimming behavior of the clrn1^+/+ larvae, clrn1^KO/KO larvae, hCLRN1-YFP; clrn1^KO/KO larvae and hCLRN1^N48K-YFP; clrn1^KO/KO larvae were recorded at 6.5dpf, 10.5dpf, 16.5dpf and 27dpf as described earlier (Table-1). The extracellular microphonics potentials were recorded at 6dpf to confirm the hair cell function in these humanized zebrafish models for hCLRN1 (hCLRN1-YFP; clrn1^KO/KO larvae larvae) and USH3-CLRN1^N48Kmutant (hCLRN1^N48K-YFP; clrn1^KO/KO larvae) as described earlier (FIG. 5).
(§2) To verify the degree of overall rescue in swimming behavior (hair cell function) and prolongation of life span by ART treatment in the hCLRN1^N48K-YFP; clrn1^KO/KO zebrafish larvae, survival rate, swimming behavior and startle response were observed longitudinally from 6.5 to 27 dpf (Table 1). For this rescue experiment, we followed two regimens of ART treatment. Regimen I, 35 larvae from hCLRN1^N48K-YFP; clrn1^KO/KO genotype were treated with 0.4 uM ART from 3 to 7 dpf (5 days of treatment during inner ear development and hair cell maturation). Regimen II, 20 larvae from hCLRN1^N48K-YFP; clrn1^KO/KO genotype were treated with 0.4 uM ART from 3 to 12 dpf (10 days of treatment overlapping development and post-development of inner ear anatomy and hair cell maturation). At 6.5 dpf, the swimming behavior and startle response of hCLRN1^N48K-YFP; clrn1^KO/KO larvae from ART treatment regimen I and II, were indistinguishable from that of clrn1^+/+ and hCLRN1-YFP; clrn1^KO/KO larvae. About 75% (Regimen I+II: 41 larvae) of ART treated hCLRN1^N48K-YFP; clrn1^KO/KO larvae had clrn1^+/+ equivalent startle response. In regimen I and II, the survival rate and swimming behavior of hCLRN1^N48K-YFP; clrn1^KO/KO larvae beyond 25 dpf shown significant improvement from 5% in untreated hCLRN1^N48K-YFP; clrn1^KO/KO larvae to 40% (n=14) and 45% (n=[…]), respectively. […] Overall, result confirms that ART is not only able to correct the trafficking defect of hCLRN1^N48K protein, but also able to help in normal hair cell functioning of hair cells from hCLRN1^N48K-YFP; clrn1^KO/KO zebrafish and delay onset progressive loss of hair cell function.

[2] = system: hCLRN1^N48K-YFP; clrn1^KO/KO larvae; experiment: Startle response and swimming/balance behavior of ART treated hCLRN1^N48K-YFP; clrn1^KO/KO larvae; type: in vivo, zebrafish
Method: as §1
At 6.5 dpf, clrn1^+/+ larvae often tend to swim towards the middle or closer to surface of the water (E3 medium) in the Petri dish, and escape swiftly from the field of view when startled (by tapping the Petri dish with a metal probe). At 6.5 dpf, hCLRN1^N48K-YFP; clrn1^KO/KO larvae (n=40) were hard to distinguish from clrn1^+/+ larvae in a Petri dish when viewed from the top. […] To monitor hair cell function in the hCLRN1^N48K-YFP; clrn1^KO/KO zebrafish, larvae from several clutch were observed longitudinally from 6.5 to 27 dpf for survival, swimming behavior and startle response (Table 1). […] However, 5% of the hCLRN1^N48K-YFP; clrn1^KO/KO zebrafish do survive long enough to be able to breed like its clrn1^+/+ counterpart. […] In this model, hair cells expressing hCLRN1^N48K retained hair bundle structure and function for a longer duration than clrn1^KO/KO hair cells, consistent with previous report ‘USH3-CLRN1Y176X individuals develop severe hearing loss earlier in life compared with CLRN1^N48K individuals’. This new model for inner ear disorder associated with hCLRN1^N48K mutation will be useful to identify therapeutic agents to prevent progressive loss of hair cell function in USH3-CLRN1^N48K mutant individuals.
as §2

[3] = Regimen I: 0.4 μM ART from 3 to 7 dpf, 6.5 dpf
[4] = Regimen I: 0.4 μM ART from 3 to 7 dpf, 10.5 dpf
[5] = Regimen I: 0.4 μM ART from 3 to 7 dpf, 15 dpf
[6] = Regimen I: 0.4 μM ART from 3 to 7 dpf, 16.5 dpf
[7] = Regimen I: 0.4 μM ART from 3 to 7 dpf, 27 dpf
[8] = Regimen II: 0.4 μM ART from 3 to 12 dpf, 6.5 dpf
[9] = Regimen II: 0.4 μM ART from 3 to 12 dpf, 10.5 dpf
[10] = Regimen II: 0.4 μM ART from 3 to 12 dpf, 15 dpf
[11] = Regimen II: 0.4 μM ART from 3 to 12 dpf, 16.5 dpf
[12] = Regimen II: 0.4 μM ART from 3 to 12 dpf, 27 dpf
[13] = Regimen I: 0.4 μM ART from 3 to 7 dpf

C[C@@H]1CC[C@H]2[C@@H](C)C(=O)O[C@@H]3O[C@@]4(C)CC[C@@H]1[C@]32OO4 [ART, Artemisinin]
Survival rate [1, 3]: (100%)
Survival rate, number of surviving larvae [1, 3]: 35
Survival rate [1, 4]: (85.71%)
Survival rate, number of surviving larvae [1, 4]: 30
Survival rate [1, 5]: (68.57%)
Survival rate, number of surviving larvae [1, 5]: 24
Survival rate [1, 6]: (54.29%)
Survival rate, number of surviving larvae [1, 6]: 19
Survival rate [1, 7]: (40%)
Survival rate, number of surviving larvae [1, 7]: 14
Survival rate and swimming behavior beyond 25 dpf ([1]; Regimen I: 0.4 uM ART from 3 to 7 dpf): 40%
Survival rate [1, 8]: (100%)
Survival rate, number of surviving larvae [1, 8]: 20
Survival rate [1, 9]: (90%)
Survival rate, number of surviving larvae [1, 9]: 18
Survival rate [1, 10]: (65%)
Survival rate, number of surviving larvae [1, 10]: 13
Survival rate [1, 11]: (65%)
Survival rate, number of surviving larvae [1, 11]: 13
Survival rate [1, 12]: (45%)
Survival rate, number of surviving larvae [1, 12]: 9
Survival rate and swimming behavior beyond 25 dpf ([1]; Regimen II: 0.4 uM ART from 3 to 12 dpf): 45%
Swimming behavior and startle response compared with clrn1^+/+ and hCLRN1-YFP; clrn1^KO/KO larvae ([2]; ART treatment regimen I and II, 6.5 dpf): indistinguishable
Larvae with clrn1^+/+ equivalent startle response ([2]; Regimen I+II, 0.4 uM ART, 6.5 dpf): About 75%
% of abnormal swimming-balance (6.5 dpf) [2, 13]: 25.71%
% of normal swimming-balance (>25 dpf) [2, 13]: 40%
% showing startle response at 6.5 dpf [2, 13]: 100%
% of normal swimming-balance (>25 dpf) ([2]; Regimen II: 0.4 μM ART from 3 to 12 dpf): 45%
